Assay results reported in patent US5795907A, “Gastin and CCK receptor ligands” (James Black Foundation Limited, priority 1994, dated 1998).

Legend:
[1] = target: T1, gastrin (Rattus norvegicus, UniProt P30553); experiment: gastrin antagonist activity in an immature rat stomach assay (pentagastrin-stimulated acid secretion); conditions: cumulative pentagastrin dose-response curves after 60 min with drug; for Kb: read-out: Gastrin pKB (converted)
T1 construct: The stomach was lowered into a jacketed organ bath containing 40 ml of buffered solution; from tissue; host or cells: isolated perfused whole stomach of immature rats (ca. 21 days old)
T1 sequence (P30553 1-452): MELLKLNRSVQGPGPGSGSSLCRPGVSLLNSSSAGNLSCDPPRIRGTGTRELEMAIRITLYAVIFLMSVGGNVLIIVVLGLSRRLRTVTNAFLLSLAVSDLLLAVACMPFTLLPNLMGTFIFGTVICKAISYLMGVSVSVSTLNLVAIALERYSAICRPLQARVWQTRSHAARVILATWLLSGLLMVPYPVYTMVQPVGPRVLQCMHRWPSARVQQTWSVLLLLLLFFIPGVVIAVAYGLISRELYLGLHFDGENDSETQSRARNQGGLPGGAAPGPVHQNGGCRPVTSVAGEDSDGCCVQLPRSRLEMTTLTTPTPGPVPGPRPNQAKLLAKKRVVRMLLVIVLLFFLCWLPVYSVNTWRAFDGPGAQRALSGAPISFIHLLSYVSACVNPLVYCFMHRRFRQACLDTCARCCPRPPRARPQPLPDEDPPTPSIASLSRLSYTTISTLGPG
Summary of the method: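 Isolated lumen-perfused immature rat stomach (33-50 g, ca. 21 days) in 37° organ bath with 3×10^-8 M 5-methylfurmethide; acid secretion read by pH electrode in perfusate. Compound added to serosal bath after 120 min stabilisation; cumulative pentagastrin dose-response curves begun 60 min later and analysed by the Black et al. method.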

[2] = target: T2, CCKB receptor (Mus musculus, UniProt P56481); experiment: CCKB receptor radioligand binding assay in mouse cortical membranes ([125I]-CCK8S); conditions: [125I]-CCK8S 200 pM, 150 min at 21±3°; for Ki: read-out: CCKB pKi (converted)
T2 construct: The cortex was dissected, weighed and homogenised in 40ml ice-cold buffer; tissue Charles River (supplier of the CD1 mice); host or cells: cerebral cortex membranes of male CD1 mice
T2 sequence (P56481 1-453): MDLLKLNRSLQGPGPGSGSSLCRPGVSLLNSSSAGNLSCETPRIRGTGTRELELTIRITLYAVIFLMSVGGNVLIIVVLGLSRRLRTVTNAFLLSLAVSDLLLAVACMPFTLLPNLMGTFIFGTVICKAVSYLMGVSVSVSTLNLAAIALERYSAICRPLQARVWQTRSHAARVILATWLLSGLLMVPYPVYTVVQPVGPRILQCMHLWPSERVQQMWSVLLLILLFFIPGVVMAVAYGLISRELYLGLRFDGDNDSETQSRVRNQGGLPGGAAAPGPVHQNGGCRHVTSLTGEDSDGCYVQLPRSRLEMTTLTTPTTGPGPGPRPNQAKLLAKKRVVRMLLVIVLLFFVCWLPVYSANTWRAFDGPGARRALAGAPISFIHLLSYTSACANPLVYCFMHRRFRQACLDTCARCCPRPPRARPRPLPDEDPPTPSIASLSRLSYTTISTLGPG
Summary of the method: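 This was competition binding with tracer [125I]-CCK8S (200 pM solution added), run for 150 min at 21±3° on male CD1 mouse cortex membranes in pH 7.2 HEPES buffer with bacitracin. Filtration then gamma counting gave bound radioactivity. L-365,260 set the non-specific level.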

[3] = target: T3, CCKA (Cavia porcellus, UniProt Q63931); experiment: CCKA radioligand binding assay in guinea-pig pancreas membranes ([125I]-CCK8(S)); conditions: PD134,308 present, 150 minutes at 21±3°; for Ki: read-out: CCKA pKi (converted)
T3 construct: The pancreatata were homogenised in 40 ml ice-cold HEPES buffer using a polytron; from tissue; host or cells: pancreas membranes of male Dunkin Hartley guinea-pigs
T3 sequence (Q63931 1-430): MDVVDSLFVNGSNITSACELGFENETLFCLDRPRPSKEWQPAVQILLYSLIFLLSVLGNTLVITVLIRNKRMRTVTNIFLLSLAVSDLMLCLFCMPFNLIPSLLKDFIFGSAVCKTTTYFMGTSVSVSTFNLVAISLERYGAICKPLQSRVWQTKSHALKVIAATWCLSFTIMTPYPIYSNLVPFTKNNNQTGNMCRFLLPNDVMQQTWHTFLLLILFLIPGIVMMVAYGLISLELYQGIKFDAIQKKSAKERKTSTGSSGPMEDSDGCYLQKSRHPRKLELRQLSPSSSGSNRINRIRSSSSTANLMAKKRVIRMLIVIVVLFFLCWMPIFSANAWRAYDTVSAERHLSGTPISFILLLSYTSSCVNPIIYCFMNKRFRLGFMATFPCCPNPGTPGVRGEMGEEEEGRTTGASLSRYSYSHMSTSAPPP
Summary of the method: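 Competition for [125I]-CCK8(S) (added as […] solution) ran for 150 min at 21±3° in HEPES pH 7.2. Membranes came from male guinea-pig pancreas at 1 mg/ml original wet weight, with 0.375 μM PD134,308 in the suspension. Filter-bound counts were gamma-counted; 100 nM L-364,718 (added solution) defined non-specific binding.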

Row | Molecule | Gastrin pKB [1] | CCKB pKi [2] | CCKA pKi [3] | Kb [1] | Ki [2] | Ki [3]
1 | CC(C)(C)NS(=O)(=O)c1cc(NC(=O)[C@H](Cc2ccccc2)NC(=O)c2cc3cc[nH]c3cc2C(=O)NCC23CC4CC(CC(C4)C2)C3)cc(S(=O)(=O)NC(C)(C)C)c1 [Example 95, 5-(1S-(3,5-di-tert-butylaminosulphonylphenylaminocarbonyl)-2-phenylethylaminocarbonyl)-6-(1-adamantanemethylaminocarbonyl)-indole] | 5.9 | 5.9 | 5.8 |  |  | 
2 | O=C(O)c1cc(NC(=O)[C@H](Cc2ccccc2Cl)NC(=O)c2cc3[nH]cnc3cc2C(=O)NCC23CC4CC(CC(C4)C2)C3)cc(C(=O)O)c1 [Example 135, 5-(1S-(3,5-dicarboxyphenylaminocarbonyl)-2-(2-chlorophenyl)ethylaminocarbonyl)-6-(1-adamantanemethylaminocarbonyl)-benzimidazole] | 8.9 | 8.3 | 5.1 |  |  | 
3 | Cn1cnc2cc(C(=O)N[C@@H](Cc3ccccc3)C(=O)Nc3cc(C(=O)O)cc(C(=O)O)c3)c(C(=O)NCC34CC5CC(CC(C5)C3)C4)cc21 [Example 74, N-methyl-5-(1S-(3,5-dicarboxyphenylaminocarbonyl)-2-phenylethylaminocarbonyl)-6-(1-adamantanemethylaminocarbonyl)-benzimidazole] | 9.0 | 7.6 | 5.3 |  |  | 
4 | O=C(O)c1cc(NC(=O)[C@H](Cc2ccc(O)cc2)NC(=O)c2cc3[nH]cnc3cc2C(=O)NCC23CC4CC(CC(C4)C2)C3)cc(C(=O)O)c1 [Example 60, 5-(1S-(3,5-dicarboxyphenylaminocarbonyl)-2-(4-hydroxyphenyl)ethylaminocarbonyl)-6-(1-adamantanemethyaminocarbonyl)-benzimidazole] |  | 7.8 |  | 7.94 nM |  | 2510 nM
5 | CC(=O)Oc1cc(OC(C)=O)c2cc(C(=O)N[C@@H](Cc3ccccc3)C(=O)Nc3cc(C(=O)O)cc(C(=O)O)c3)c(C(=O)NCC34CC5CC(CC(C5)C3)C4)cc2c1 [Example 53, 3-(1S-(3,5-dicarboxyphenylaminocarbonyl)-2-phenylethylaminocarbonyl)-2-(1-adamantanemethylaminocarbonyl)-5,7-diacetoxy-naphthalene] | 7.9 | 8.1 | 6.1 |  |  | 
6 | O=C(O)c1cc(NC(=O)[C@H](Cc2ccccc2)NC(=O)c2cc3[nH]cnc3cc2C(=O)NCC23CC4CC(CC(C4)C2)C3)ccc1F [Example 75, 5-(1S-(3-carboxy-4-fluoro-phenylaminocarbonyl)-2-phenylethylaminocarbonyl)-6-(1-adamantanemethylaminocarbonyl)-benzimidazole] | 7.7 | 7.8 | 6.1 |  |  | 
7 | O=C(O)c1cc(NC(=O)[C@H](Cc2ccccc2)NC(=O)c2cc3cc[nH]c3cc2C(=O)NCC23CC4CC(CC(C4)C2)C3)cc(C(=O)O)c1 [Example 24, 5-(1S-(3,5-dicarboxyphenylaminocarbonyl)-2-phenylethylaminocarbonyl)-6-(1-adamantanemethylaminocarbonyl)-indole] |  |  |  | 0.316 nM | 1.26 nM | 2000 nM
8 | CN(C(=O)[C@H](Cc1ccccc1)NC(=O)c1cc2[nH]cnc2cc1C(=O)NCC12CC3CC(CC(C3)C1)C2)c1cc(C(=O)O)cc(C(=O)O)c1 [Example 73, 5-(1S-(3,5-dicarboxyphenyl-N-(methyl)amino-carbonyl)-2-phenylethylaminocarbonyl)-6-(1-adamantane-methylaminocarbonyl)-benzimidazole] |  | 6.3 |  | 63.1 nM |  | 6310 nM
9 | COC(=O)c1cc(NC(=O)[C@H](Cc2ccccc2)NC(=O)c2cc3ccoc3cc2C(=O)NCC23CC4CC(CC(C4)C2)C3)cc(C(=O)OC)c1 [Example 124, 5-(1S-(3,5-dimethoxycarbonylphenylaminocarbonyl)-2-phenylethylaminocarbonyl)-6-(1-adamantanemethylaminocarbonyl)-benzofuran] | 6.8 | 6.5 | 5.7 |  |  | 
10 | 5-(1S-(3,5-dicarboxyphenylaminocarbonyl)-2-phenylethylaminocarbonyl)-6-(1-adamantanemethyl-N-methylaminocarbonyl)-indole and regioisomer with substituents at positions 5 and 6 reversed [Example 41] | 7.8 | 7.8 | 5.7 |  |  | 
11 | C[C@H](NC(=O)c1cc2cc[nH]c2cc1C(=O)NCC12CC3CC(CC(C3)C1)C2)C(=O)Nc1cc(C(=O)O)cc(C(=O)O)c1 [Example 47, 5-(1S-(3,5-dicarboxyphenylaminocarbonyl)-ethylaminocarbonyl)-6-(1-adamantanemethylaminocarbonyl)-indole] |  |  |  | 5.01 nM | 158 nM | 6310 nM

The remaining lines, values ahead:

Row | Gastrin pKB [1] | CCKB pKi [2] | CCKA pKi [3] | Kb [1] | Ki [2] | Ki [3] | Molecule
12 | 7.5 | 6.5 | 5.0 |  |  |  | 5-(1S-(3,5-dicarboxyphenylaminocarbonyl)-ethylaminocarbonyl)-6-(cycloheptanemethylaminocarbonyl)-indole and regioisomer with substituents at positions 5 and 6 reversed [Example 58]
13 |  |  |  | 200 nM | 398 nM | 3160 nM | O=C(NCC12CC3CC(CC(C3)C1)C2)c1cc2ccccc2cc1C(=O)N1CCC[C@@H]1C(=O)O [Example 3, 3-(2R-carboxypyrrolidino-carbonyl)-2-(1-adamantanemethylaminocarbonyl)-naphthalene]
14 | 7.5 | 6.9 | 5.1 |  |  |  | 5-(1R-(3,5-dicarboxyphenylaminocarbonyl)-ethylaminocarbonyl)-6-(cycloheptanemethylaminocarbonyl)-indole and regioisomer with substituents at positions 5 and 6 reversed [Example 59]
15 | 7.1 | 6.7 | 5.1 |  |  |  | 5-(1S-(3,5-dicarboxyphenylaminocarbonyl)-2-phenylethylaminocarbonyl)-6-(2,2-dimethylpropylaminocarbonyl)-indole and regioisomer with substituents at positions 5 and 6 reversed [Example 46]
16 | 9.2 | 8.1 | 5.4 |  |  |  | 5-(1R-(3,5-dicarboxyphenylaminocarbonyl)-2-phenylethylaminocarbonyl)-6-(1-adamantanemethylaminocarbonyl)-indole and regioisomer with substituents at positions 5 and 6 reversed [Example 29]
